Experimental data as given in US10822317B2, “Methods and compositions for wound healing” (QBiotics Limited, priority 2013, dated 2020).

System: mouse stroma of human SK-Mel-28 xenografts
Assay: Gene expression in mouse stroma of human tumour xenografts
Format: in vivo
Conditions: 30 μg intratumoural
Method: Mouse stroma in human tumour xenografts were obtained from mice in which the Sk-Mel-28 human melanoma cell line was injected subcutaneously into 2 sites on the flanks of each BALB/c FoxnInu mouse (2×10^6 cells/site) and allowed to grow to approximately 7 mm diameter. Each tumour was then injected with 50 μL of 20% propylene glycol containing 30 μg Compound 1 or with 50 µL of 20% propylene glycol. At different times after injection a mouse was euthanased and the tumours harvested, the skin covering removed, and the intact tumours stored at −80° C.
RNA was extracted from 30 mg of frozen tumour or 1×10^7 cells using the QiagenRNeasyPlus Mini Kit, according to manufacturer's instructions, then quantitated with a NanoDrop instrument and integrity confirmed on denaturing agarose gels bearing a 1 kb DNA marker and stained with ethidium bromide.
Approximately 500 ng of total unlabelled RNA was adjusted to a final volume of 11 μL with nuclease-free water. The RNA was incubated with 9 μL of the reverse transcriptase master mix (1 μL of T7 Oligo (dT) Primer, 2 μL of 10× first strand buffer, 4 μL of dNTP mix, 1 μL of RNase inhibitor and 1 μL of ArrayScript) at 42° C. for 2 hr. This was followed by the second strand cDNA synthesis step which involved a further incubation at 16° C. for 2 hr with 80 µL of the second strand master mix (63 μL nuclease-free water, 10 μL 10× second strand buffer, 4 μL dNTP mix, […] and 1 μL RNase H). The cDNA was purified by filtering through a cDNA Filter Cartridge with 250 μL of cDNA binding buffer and washing with 500 μL of the wash buffer provided in the kit. Purified cDNA was eluted with 20 μL of 55° C. nuclease-free water. Each cDNA sample was incubated with 7.5 μL of the IVT master mix (2.5 μL of T7 10× reaction buffer, 2.5 μL of T7 enzyme mix and 2.5 μL biotin-NTP mix) at 37° C. for 16 hr. The reaction was stopped with the addition of 75 μL of nuclease-free water to each cRNA sample. The biotinylated, amplified RNA was purified by filtering the cRNA samples through cRNA Filter Cartridges with 350 μL of cRNA binding buffer and 250 μL of 100% ethanol mixed together prior to loading onto the filters. The cRNA filter cartridges with attached RNA were then washed with 650 μL of wash buffer before eluting purified cRNA with 200 μL of 55° C. nuclease-free water.
The cRNA samples were heated at 65° C. for 5 min and collected by pulse centrifugation. After heating at 65 degrees for 5 min, approximately 750 ng of the cRNA sample was aliquoted into separate tubes to which were added ˜5 μL of RNase-free water and 10 μL of Hyb Mix. Approximately 15 μL of the prepared cRNA mix was loaded onto the Illumina Expression BeadChips. Subsequent steps of hybridisation and washing were carried out according to the Whole-Genome Gene Expression Direct Hybridization Assay Guide supplied by Illumina.
The Human HT-12 v4 Expression BeadChips cover more than 47,000 transcripts and known splice variants across the human transcriptome. The MouseRef-8 v2.0 Expression BeadChips cover approximately 25,600 well-annotated RefSeq (Reference Sequence) transcripts, comprising over 19,000 unique genes.
BeadChips were read by the iScan System, and transferred via GenomeStudio into GeneSpring GX v12.5 (Agilent Technologies, Santa Clara, Calif., USA). The expression values were normalized using quantile normalization with default settings. The entities were filtered based on the detection score calculated by GenomeStudio where p≤0.05 was considered significant.
Expression data using mouse gene-specific microarrays were performed for 2-3 individual human SK-Mel-28 xenografts treated by intratumoural injection with 30 μg of Compound 1, along with 3 vehicle-only sites, the data combined. Only those mouse genes for which expression in the Compound 1 treated site was >2 times higher or >2 times lower than in the vehicle-injected site were examined for relevance to wound healing.

`CC=C(C)C(=O)OC1C(C)C2(O)C(C3OC3(CO)C(O)C3(O)C(=O)C(C)=CC32)C2C(C)(C)C12OC(=O)C(C)CC` (stereo not drawn) [Compound 1, 12-tigloyl-13-(2-methylbutanoyl)-6,7-epoxy-4,5,9,12,13,20-hexahydroxy-1-tigliaen-3-one] was tested, and the “Acta1: Direction of regulation” value (0.5 h) was “Up”, the “Tgm2: Direction of regulation” value (0.5 h) was “Up” and the “Thbs2: Direction of regulation” value (0.5 h) was “Down”. The “Thbs2: Fold change in expression” value (0.5 h, Down) was 3.98 fold, the “Acta1: Fold change in expression” value (0.5 h, Up) was 9.3 fold and the “Tgm2: Fold change in expression” value (0.5 h, Up) was 2.67 fold. For the same compound, the “Col17a1: Direction of regulation” value (1 h) was “Up”, the “Itga7: Direction of regulation” value (1 h) was “Up” and the “Krt5: Direction of regulation” value (1 h) was “Up”. For the same compound, the “Krt10: Direction of regulation” value (1 h) was “Up”, the “Krt15: Direction of regulation” value (1 h) was “Up” and the “Krt17: Direction of regulation” value (1 h) was “Up”. The “Krtdap: Direction of regulation” value (1 h) was “Up”, the “LCe1a1: Direction of regulation” value (1 h) was “Up” and the “Lce1a2: Direction of regulation” value (1 h) was “Up”. For the same compound, the “Lce1b: Direction of regulation” value (1 h) was “Up”, the “Lce1m: Direction of regulation” value (1 h) was “Up” and the “Lce1d: Direction of regulation” value (1 h) was “Up”. The “Lor: Direction of regulation” value (1 h) was “Up”, the “krt14: Direction of regulation” value (1 h) was “Up” and the “Col17a1: Fold change in expression” value (1 h, Up) was 2.7 fold. The “Itga7: Fold change in expression” value (1 h, Up) was 2.1 fold, the “Krt5: Fold change in expression” value (1 h, Up) was 2.8 fold and the “Krt10: Fold change in expression” value (1 h, Up) was 7 fold. The “Krt15: Fold change in expression” value (1 h, Up) was 2.3 fold, the “Krt17: Fold change in expression” value (1 h, Up) was 2.9 fold and the “Krtdap: Fold change in expression” value (1 h, Up) was 7 fold. For the same compound, the “LCe1a1: Fold change in expression” value (1 h, Up) was 2.7 fold, the “Lce1a2: Fold change in expression” value (1 h, Up) was 3 fold and the “Lce1b: Fold change in expression” value (1 h, Up) was 4.8 fold. For the same compound, the “Lce1m: Fold change in expression” value (1 h, Up) was 4.9 fold, the “Lce1d: Fold change in expression” value (1 h, Up) was 3.3 fold and the “Lor: Fold change in expression” value (1 h, Up) was 11.6 fold. The “krt14: Fold change in expression” value (1 h, Up) was 9.4 fold, the “Col17a1: Direction of regulation” value (2 h) was “Up” and the “Krt10: Direction of regulation” value (2 h) was “Up”. The “Lor: Direction of regulation” value (2 h) was “Up”, the “krt14: Direction of regulation” value (2 h) was “Up” and the “Col17a1: Fold change in expression” value (2 h, Up) was 2 fold. The “Krt10: Fold change in expression” value (2 h, Up) was 2.4 fold, the “Lor: Fold change in expression” value (2 h, Up) was 2.8 fold and the “krt14: Fold change in expression” value (2 h, Up) was 5.6 fold. For the same compound, the “Acta1: Direction of regulation” value (4 h) was “Up”, the “CXCL1: Direction of regulation” value (4 h) was “Up” and the “Col17a1: Direction of regulation” value (4 h) was “Up”. The “Egr1: Direction of regulation” value (4 h) was “Up”, the “Krt10: Direction of regulation” value (4 h) was “Up” and the “Krt17: Direction of regulation” value (4 h) was “Up”. The “Krt71: Direction of regulation” value (4 h) was “Up”, the “Krtdap: Direction of regulation” value (4 h) was “Up” and the “LCe1a1: Direction of regulation” value (4 h) was “Up”. For the same compound, the “Tgm2: Direction of regulation” value (4 h) was “Down”, the “krt14: Direction of regulation” value (4 h) was “Up” and the “Tgm2: Fold change in expression” value (4 h, Down) was 2 fold. For the same compound, the “Acta1: Fold change in expression” value (4 h, Up) was 30.3 fold, the “CXCL1: Fold change in expression” value (4 h, Up) was 12.1 fold and the “Col17a1: Fold change in expression” value (4 h, Up) was 3.2 fold. For the same compound, the “Egr1: Fold change in expression” value (4 h, Up) was 4.7 fold, the “Krt10: Fold change in expression” value (4 h, Up) was 8.6 fold and the “Krt17: Fold change in expression” value (4 h, Up) was 10 fold. For the same compound, the “Krt71: Fold change in expression” value (4 h, Up) was 3.2 fold, the “Krtdap: Fold change in expression” value (4 h, Up) was 3.8 fold and the “LCe1a1: Fold change in expression” value (4 h, Up) was 2.8 fold. For the same compound, the “krt14: Fold change in expression” value (4 h, Up) was 9.7 fold, the “Acta1: Direction of regulation” value (8 h) was “Up” and the “Egr1: Direction of regulation” value (8 h) was “Up”. For the same compound, the “Krt10: Direction of regulation” value (8 h) was “Down”, the “Krt17: Direction of regulation” value (8 h) was “Down” and the “Krt10: Fold change in expression” value (8 h, Down) was 2.1 fold. For the same compound, the “Krt17: Fold change in expression” value (8 h, Down) was 2 fold, the “Acta1: Fold change in expression” value (8 h, Up) was 8.5 fold and the “Egr1: Fold change in expression” value (8 h, Up) was 5.34 fold.
